Common to all, as to test: Proliferation, CellTiter-Glo, 72 h
Type in all cases: cell-based
(In general: In ATP-based viability assays light output follows the ATP content of the culture.)

In assay [1] the test system is SW48. The following applies: Homo sapiens; SW48, CRC; CTNNB1 (S33Y); EGFR (G179S); β-catenin Active.
The test system of assay [2] is Colo 205. The following applies: Homo sapiens; Colo 205, CRC; BRAF (V600E); β-catenin status N/A. As for the experimental part: HCC cell lines were treated with DMSO or increasing concentrations of Compound 1 for 72 h. Specifically, Compound 1 at various concentrations in dimethyl sulfoxide (DMSO) was spotted via an acoustic dispenser (EDC ATS-100) into an empty 384-well plate. Compound 1 was spotted in a 10-point serial dilution fashion (3-fold dilution) in duplicate within the plate. Replicates of plates spotted with Compound 1 were made for use with different cell lines. After compound plate replication, all plates were sealed (Agilent ThermoLoc) and stored at −20° C. for up to 1 month. When ready for testing, plates were removed from the freezer, thawed, and unsealed just prior to the addition of the test cells.
Prior to testing, cells were grown and expanded in culture flasks to provide sufficient amounts of starting material. Cells were then diluted to the appropriate densities and added directly to the compound-spotted 384-well plates. […] At the time when compound was added (t0), initial cell number was assessed via a viability assay (Cell Titer-Glo) by quantifying the level of luminescence generated by ATP present in viable cells. After 72 h, cell viability of compound-treated cells was assessed via Cell Titer-Glo and luminescence measurement. The apoptotic response to Compound 1 was assessed by quantifying the activities of caspase 3 and caspase 7 (Caspase 3/7-Glo) in treated cells and DMSO control cells. […]

Assay [3] deals with AGS. The following applies: Homo sapiens, Gastric, CTNNB1 (G43E), KRAS (G12D), β-catenin Active.

With `C[C@]1(C(N)=O)CC[C@@H](n2c(Nc3c(Cl)cc(Cl)cc3Cl)nc3cnc(N[C@@H]4CCOC[C@H]4F)nc32)CC1` [Compound 1, cis-4-[2-{[(3S,4R)-3-fluorooxan-4-yl]amino}-8-(2,4,6-trichloroanilino)-9H-purin-9-yl]-1-methyl cyclohexane-1-carboxamide], the IC50 turned out to be 9 nM in assay [1], 36 nM in assay [2] and 28 nM in assay [3].

The IC50 is the midpoint of a concentration-inhibition curve.
